# Residues, ends and D or L forms follow the SMILES beside them.
# Columns and labels:
# [1] = Parenteral nutrition after 5-FU injury in rats: intestinal and hematological indices; assay type: in vivo; details: all drug-treated animals, independent of diet
# Description: Rats were catheterized as previously described and after a minimum of 3 hr following recovery from anesthesia, groups of animals received 100, 150 or 200 mg/kg of 5-FU by i.p. injection. […] The nutrition infusion, started 4 hr after 5-FU or saline, was continued for 4 d. at a rate of 46 ml/24 hr.
# Blood and intestinal tissue were sampled and prepared for analysis as described in the examples above. The hemoglobin, white blood cell and platelet numbers were determined as measures of the general hematological toxicity of the various doses of 5-FU.
# All analyses were performed as previously described in Examples 6 and 7. Statistical analyses were performed using two-way analysis of variance comparing both diets and dose of 5-FU. Unpaired t tests were used to compare two treatment groups at one dose of 5-FU. Differences were considered statistically significant at a p value of <0.05.
# [2] = rat
# Description: Lactulose is a non-metabolizable sugar that is poorly absorbed from the gastrointestinal tract. In gastrointestinal disorders such as inflammatory bowel disease, lactulose is taken up through gaps in the mucosal membrane, allowing its excretion in the urine. The amount of urinary lactulose is therefore a measure of "leakage" across the gut mucosal barrier (Menzies, Biochem. Soc. Trans. […]:1042-1047 (1974)).
# Rats were treated with 5-fluorouracil as described in Example 8, above. Lactulose, 2 ml iso-osmolar solution of 100 mg/ml, was infused by gavage and urine was collected over the subsequent 24 hr and frozen. Urinary lactulose was determined enzymatically as described by Ziegler et al. (Arch. Surg. 123:1313-1319 (1988)).
# [3] = Urinary excretion and nitrogen balance after laparotomy in dogs; assay type: in vivo, dog; details: projected intake 0.312 gm N/24 hr/kg
# Description: Urine excreted during the 24 hours of infusion was collected in the closed urinary collecting system and stored in acidified, refrigerated containers. Aliquots were stored frozen at -20° C. for batch analysis.
# All solutions were infused at the rate of 4 ml/minute/kg. Five control animals received 0.9% saline. Amino acid solutions (Table V) containing BCCA's at three different concentrations (11%, 22%, or 44% of total amino acids) were prepared by adding amino acids to an 8.5% standard amino acid formula, FreAmine III (American McGaw, Irvine, Calif.). The total BCAA infusion rates were 0.46, 0.92, and 1.84 grams/24 hours/kg, respectively. All three amino acid solutions were isonitrogenous, providing approximately 0.624 grams of nitrogen/24 hours/kg, with a constant ratio of valine to leucine to isoleucine (1: 1.38:1.05). Nine animals received an 11% BCAA solution which was made by dissolving a mixture of non-essential amino acids (NEAA) in 2.13% FreAmine III to make a solution that provided 0.624 grams of nitrogen/24 hours/kg. […] Six animals received 4.25% FreAmine III alone (22% BCAA). The final seven animals received 2.13% FreAmine III supplemented with enough BCAA's to make a 44% solution. […] All solutions were sterilized by passage through a 0.22 uM filter (Millipore, Millis, Mass.) and stored overnight at 4° C. prior to administration. […]
# [4] = intravenous feeding regimen; cited from earlier work
compound,measurement,setting,value
"O=c1[nH]cc(F)c(=O)[nH]1 [5-FU, 5-fluorouracil]",Circulating white blood cell and platelet counts,[1],marked decline in the circulating white blood cell and platelet counts
same,Gut permeability to lactulose,[2],increase gut permeability to lactulose
same,Time of peak increase in gut permeability,[2],between 24 and 48
"NC(=O)CC[C@H](N)C(=O)O [Glutamine, glutamine]",Nitrogen balance,[3],-0.386 ± 0.086 gm/24 hr/kg
same,Nitrogen excretion,[3],0.709 ± 0.085 gm/24 hr/kg
C[C@H](N)C(=O)N[C@@H](CCC(N)=O)C(=O)O [L-alanyl-L-glutamine] (H-Ala-Gln-OH),Postoperative nitrogen balance,[4],improve postoperative nitrogen balance

# Source: US5763485A, “Method of treating catabolic, gut-associated pathological processes and impaired host defenses” (Brigham and Women's Hospital, priority 1995, dated 1998)
